{"source": "patent EP0073715A1", "about": "“Brominated compounds for use in opacifying products” (Société dite: GUERBET S.A., priority 1981, dated 1983)", "assay": "Protein binding (Brodersen technique)", "settings": "weaker interaction means better tolerance, read-out: Liaison protéique (converted)", "excerpt": "Plus cette interaction est faible et meilleure est la tolérance.", "data": [{"molecule": "O=C(CCCCC(=O)Nc1c(I)cc(I)c(C(=O)O)c1I)Nc1c(I)cc(I)c(C(=O)O)c1I", "note": "[Adipiodone de méthylglucamine]", "values": [{"measurement": "Kd", "value": 78.1, "unit": "µM"}]}]}
